Experimental data as given in patent US20260198495A1, “BINARY INSECTICIDE COMPOSITION AND USE THEREOF” (SHENYANG SINOCHEM AGROCHEMICALS R & D CO., LTD., priority 2022, published 2026).
In brackets after ≈: the same amount, converted by molar mass.

How the values were obtained:
Format in all cases: in vivo
[1] = test system: 2nd-instar larvae of Chilo suppressalis (Walker); test: whole plant or invertebrate; settings: Chilo suppressalis; resistant 2nd-instar larvae, rice stalk spraying, 72 h; A = compound I-72, B = spinetoram; read-out: LC50
Experimental: In addition, a blank control was set up. The number of dead and live insects was investigated 72 hours later.

[2] = test system: Bemisia tabaci (Gennadius) nymphs; test: Joint toxicity of I-72 + spiromesifen, Example 27, Table 27; settings: Bemisia tabaci; A = compound I-72, B = spiromesifen; cotton leaf-disk spraying; 96 hours; read-out: LC50
Experimental: (§1) Test target: Bemisia tabaci (Gennadius) nymphs, a sensitive strain reared indoors.
(§2) Preparation of the pesticide solution: according to different test requirements, the test samples were accurately weighed respectively with an electronic analytical balance. The technical pesticides were dissolved in acetone, and then diluted with 0.1% Tween 80 water into a series of pesticide solutions with a certain concentration gradient according to the experimental design dosage.
(§3) Experimental method: first, cotton leaves with neat and consistent Bemisia tabaci (Gennadius) nymphs were selected and made into leaf disks, with about 20 insects on each leaf disk. Then, they were evenly sprayed with the pesticide solution in the order from low dosage to high dosage according to the experimental design, with 1.5 mL for each leaf and 3 replicates for each treatment. In addition, a blank control was set up.
(§4) The treated test materials were placed in an observation room, and the temperature, humidity and illumination of the observation room could be adjusted as needed. The number of dead and live insects was investigated 96 hours later. […] Then, the co-toxicity coefficient of each ratio was calculated using the Sun Y-P method to evaluate the mixing effect (the same as in Example 1).

[3] = test system: 2nd-instar larvae of Plutella xylostella; test: Joint toxicity of I-72 + spiropidion, Example 31, Table 31; settings: Plutella xylostella, foliar; A = compound I-72, B = spiropidion; cabbage leaf dipping; 72 hours; read-out: LC50
Experimental: (§5) Test target: 2nd-instar larvae of Plutella xylostella.
as §2
(§6) Experimental method: first, cabbage leaves were selected and dipped in the prepared pesticide solution for 10 s in the order from low dosage to high dosage according to the experimental design. After natural air-drying in the shade, they were placed in a 9-cm-diameter Petri dish with filter paper, and uniform and healthy test insects were introduced, with 10 insects for each treatment and 3 replicates for each treatment. In addition, a blank control was set up.
as §4, with “72” for “96”

[4] = test system: 2nd-instar larvae of Mythimna separata; test: Joint toxicity of I-72 + beta-cyfluthrin, Example 41, Table 41; settings: Mythimna separata, foliar; A = compound I-72, B = beta-cyfluthrin; corn leaf dipping; 72 hours; read-out: LC50
Experimental: Test target: 2nd-instar larvae of Mythimna separata.
as §2
as §6, with “corn” for “cabbage”
as §4, with “72” for “96”

[5] = test system: 2nd-instar larvae of Plutella xylostella; test: whole plant or invertebrate; settings: Plutella xylostella; single pesticide, 0.5 mg/L; 72 hours; read-out: Measured mortality rate
Experimental: as §5, §2
as §6, with “control (CK)” for “control”
The treated test materials were placed in an observation room, and the temperature, humidity and illumination of the observation room could be adjusted as needed. The number of dead and alive insects was investigated 72 hours later, and the corrected mortality rate was calculated using the Abbott's formula.
The synergism of the mixture was evaluated by the Bliss method. According to the concept of independent joint action he proposed, Bliss believes that the theoretical mortality rate P when insecticides are used in combination can be calculated by the following formula: […]
Pm is the measured mortality rate (%) of the target when the first active ingredient is at a concentration of m; and Pn is the measured mortality rate (%) of the target when the second active ingredient is used at a concentration of n.
If the actual mortality rate of the target after the two active ingredients are mixed at a certain concentration is greater than theoretical mortality rate P, it is determined that the two active ingredients have a synergistic effect when used in combination at the set concentration, and otherwise, they have an antagonistic effect.

[6] = test system: adult Phyllotreta vittuta Fabr.; test: Joint toxicity of I-72 + cyantraniliprole, Example 63, Table 63; settings: A = compound I-72, B = cyantraniliprole; potted cabbage seedling spraying; 72 hours; read-out: LC50
Experimental: Test target: adult Phyllotreta vittuta Fabr.
as §2
Experimental method: first, uniform and consistent potted cabbage seedlings were selected. Then, uniform spraying was performed with the pesticide solution in the order from low dosage to high dosage according to the experimental design. After air-drying in the shade, adult flea beetles were transferred onto the treated cabbage seedlings, and then glass covers were put on them, with about 30-40 adult flea beetles on each seedling and 3 replicates for each treatment. In addition, a blank control was set up.
as §4, with “72” for “96”

[7] = test system: Nilaparvata lugens (Stal) nymphs; test: Joint toxicity of I-72 + triflumezopyrim, Example 75, Table 75; settings: Nilaparvata lugens; A = compound I-72, B = triflumezopyrim; potted-seedling spraying; 72 hours; read-out: LC50
Experimental: Test target: Nilaparvata lugens (Stal) nymphs, a sensitive strain reared indoors.
as §2
Experimental method: the activity of the mixture against the Nilaparvata lugens (Stal) nymphs was determined by adopting the potted-seedling spraying method. First, rice seedlings were planted in culture pots. Uniform spraying was performed with the pesticide solution in the order from low dosage to high dosage according to the experimental design, with 2 mL for each seedling. Then, Nilaparvata lugens nymphs of uniform size were transferred onto the rice seedlings, with 3 replicates for each treatment. In addition, a blank control was set up.
as §4, with “72” for “96”

[8] = test system: Bemisia tabaci (Gennadius) nymphs; test: Joint toxicity of I-72 + pyrifluquinazon, Example 77, Table 77; settings: Bemisia tabaci; A = compound I-72, B = pyrifluquinazon; cotton leaf-disk spraying; 96 hours; read-out: LC50
Experimental: as §1, §2, §3, §4

Compound: CN(C(=O)c1ccc2c(c1)OC(F)(F)O2)c1cccc(C(=O)Nc2c(Br)cc(C(F)(C(F)(F)F)C(F)(F)F)cc2OC(F)F)c1F [Compound I-72]
- LC50 [1]: 0.811 µg/mL (≈ 1.09 µM)
- LC50 [2]: 11.9 µg/mL
- LC50 [3]: 0.0876 µg/mL
- LC50 [4]: 0.029 µg/mL
- mortality at 0.5 µg/mL [5]: 80%
- LC50 [6]: 1.16 µg/mL
- LC50 [7]: 285 µg/mL
- LC50 [8]: 10.8 µg/mL
